# US20230192701A1, “BICYCLIC KINASE INHIBITORS AND USES THEREOF” (iOmx Therapeutics AG, priority 2020, published 2023)
# Experiments:
# [1] = tested on: 335 wild-type protein kinases; assay: single-point inhibition assays, residual activity (ProQinase Kinase Profiler); type: biochemical; conditions: single-point 0.1 uM and 1 uM, 335 kinases
# Description: Several compounds of Formula (I) described herein were also tested in single-point (0.1 uM and 1 uM) inhibition assays over a diverse set of 335 wild-type protein (ProQinase “Kinase Profiler”; ProQinase, Freiburg, Germany), in which the residual activity of each kinase was determined. […] Secondly, the residual activity of each kinase was compared to other compounds tested (in particular, against the prior art compounds PY1) by use of scatter plots.
# Kinetic solubility assay = type: physicochemical; conditions: aqueous buffer, kinetic from dmso stock; PBS buffer pH 7.4, 1.0% DMSO, 24 h at RT
# Description: The Kinetic solubility assay was conducted as follows. 4 uL compound of the 50 mM DMSO stock was added to deep well plate containing 396 uL PBS buffer (pH 7.4). The DMSO content in the sample was 1.0%, and the compound concentration 500 μM. The sample plate was vortexed at 800 rpm for 24 h at RT on a thermomixer. At the end of the incubation period, the sample plate was centrifuged at 4000 rpm for 10 mins. 3 uL of supernatant was transferred to well containing 297 uL of ISTD in Acetonitrile water:50:50, v/v and analysed in LC-MS/MS against a calibration curve (CC).
# [2] = Mouse liver microsomal stability; type: in vitro ADME; conditions: pH 7.4; mouse liver microsomes, NADPH, 37°C
# Description: Briefly, human and liver microsomal stability was determined by pre-incubation of 2.5 uL compound and 75 uL of the respective liver microsomes in potassium phosphate buffer (pH 7.4) at 37° C. After adding of NADPH as cofactor and further incubation at 37° C. for 60 min, acetonitrile containing internal standard was added, and the sample was vortexed for 5 min at 1200 rpm and then centrifuged 10 min at 4000 rpm.
# (§1) LC-MS/MS was performed for all assays using a C18 column (50*4.6 mm, 5 um) for the CaCo2 assay, or a C18 column (50*4.6 mm, 4 um) for the other assays. The mobile phases used were 10 mM Ammonium Acetate with 0.1% Formic acid (aqueous) and 100% Acetonitrile (organic).
# [3] = Human plasma-protein binding (RED method); type: in vitro ADME
# Description: (§2) Human and mice protein plasma binding was determined using the Plasma Protein Binding by RED Method. Briefly, 200 uL of the respective plasma containing the test compound (10 uM) was spiked into the donor well (RED Chamber) of the insert. 350 uL of PBS was spiked into receiver well (white chamber). The plate was incubated at 37° C. in a thermomixer at 400 rpm for 5 hours. The samples were matrix equilibrated with opposite matrix (25 uL blank buffet/Plasma). Matrix matched samples were precipitated with 200 uL of Acetonitrile containing Internal standard. Samples were vortexed at 1000 rpm for 5 min and centrifuged at 4000 rpm for 10 min. The supernatant was diluted 2 folds with water and % bound and unbound protein and % recovery at 5 h was determined by LC-MS/MS.
# as §1
# [4] = Murine plasma protein binding (RED method); type: in vitro ADME; conditions: mouse
# Description: as §2, §1
# [5] = CaCo2 permeability and efflux assay; type: in vitro ADME; conditions: human, Caco-2; CaCo2, mean efflux ratio
# Description: (§3) To determine apparent permeability of the compounds an assay using a Caco-2 cells monolayer (cultured for 21d) in a 24-well format (poly carbonate high pore density plate with 0.4 μm pore size and a 0.7 cm2 active membrane area; Millipore) was performed as followed. 800 uL of DMEM was added to the basal compartment of the 24 well-plate and 60000 CaCo2 cells/well were seeded in the apical wells and incubated in a CO2 incubator at 37° C. for proliferation of cells. Apical to Basal permeability was determined by adding 400 uL of test compound to the apical well and 800 uL of HBSS buffer with 2% BSA to the basal well. 25 uL of basal sample was collected after 120 min and processed as stated below. Basal to Apical permeability was determined by adding 800 uL of test compound to basal well and 400 uL of HBSS buffer with 2% BSA to apical well. 25 uL of apical sample was collected after 120 min and processed as stated below. The samples were processed by diluting the donor samples 1:1 with HBSS containing 2% BSA and the receiver samples 1:1 with HBSS buffer. Samples were then precipitated with 200 uL of acetonitrile containing internal standard, vortexed for 5 min at 1000 rpm, and centrifuged at 4000 rpm for 20 min. 150 uL of supernatant was diluted with 150 uL of water and submitted for LC-MS/MS analysis, and Bi-directional (A-B and B-A) apparent permeability (Papp) was calculated.
# as §1
# Caco-2 cells monolayer = assay: CaCo2 permeability and efflux assay; type: in vitro ADME; conditions: CaCo2, apical to basal, 120 min
# Description: as §3, §1
# [6] = pharmacokinetic study, plasma level after single po or iv administration; type: in vivo, male CD1 mice; conditions: mice
# Description: Screening PK properties of compounds of Formula (I) are additionally determined, including plasma and free plasma concentration, as well as Cmax. For example, the free concentration of compound after a dose of eg 30 mg/kg po (per os) administered mice can be determined for certain time points after administrations.
# To further investigate PK properties of kinase inhibitors of Formula (I), the compounds are tested for in vivo drug exposure and potency in a full pharmacokinetic study with oral administration (per os, po).
# The experimental procedure and the determination of the pharmacokinetic parameters are investigated after single administration of each compound per gavage in male CD1 mice (Intonation Research Laboratories (Hyderabad, India)). The compounds are diluted in 5% DMSO+5% Solutol+90% water. Plasma level (eg sampling 0.25 h; 0.5 h; 1 h; 1.5 h; 2 h; 4 h; 6 h; 12 h; 24 h after drug administration) of the compounds are analysed by LC-MS/MS and pharmacokinetic parameters are determined using non-compartmental analysis and nominal dose levels of eg 30 mg/kg po and 1 mg/kg iv. Three animals are analysed per time point and each mouse is used for three plasma samplings in total.
smiles,measurement,setting,value
"COc1ccc(N2C(=O)N(c3c(C)csc3Cl)Cc3cnc(Nc4ccc(C5CCN(C)CC5)cc4OC)nc32)nc1 [AA1, 3-(2-chloro-4-methylthiophen-3-yl)-7-((2-methoxy-4-(1-methylpiperidin-4-yl)phenyl)amino)-l-(5-methoxypyridin-2-yl)-3,4-dihydropyrimido[4,5-d]pyrimidin-2(1H)-one]",overall kinase profile compared to prior art compound PY1,[1],most similar overall kinase profile to the prior art compound PY1
same,particular kinases with different inhibition than PY1,[1],"BLK, SIK3 and TEC"
same,solubility kinetic at 24 h,Kinetic solubility assay,6.9 µM
same,half-life,[2],45 min
same,"recovery at 5 h, 10 uM",[3],32%
same,"recovery at 5 h, 10 uM",[4],40%
same,efflux ratio at 120 min,[5],2.4
same,A > B(10 EE-06 cm/s),Caco-2 cells monolayer,10.5 10 EE-06 cm/s
same,compound detectable in plasma after 24 h,[6]; 1 mg/kg iv,detectable after 24 hours
same,compound detectable in plasma after 24 h,[6]; 30 mg/kg po,detectable after 24 hours
